The values that follow come from patent publication US7880007B2, “Bicyclic substituted phenyl piperidine modulators of muscarinic receptors” (Vertex Pharmaceuticals Incorporated, priority 2004, dated 2011).

What all share (assay type): cell-based
One assay addresses T1, M1 muscarinic receptor (Homo sapiens, UniProt P11229).
T1 construct: expressed in transfected cells; host or cells: CHO (M1-CHO)
T1 sequence (P11229 1-460): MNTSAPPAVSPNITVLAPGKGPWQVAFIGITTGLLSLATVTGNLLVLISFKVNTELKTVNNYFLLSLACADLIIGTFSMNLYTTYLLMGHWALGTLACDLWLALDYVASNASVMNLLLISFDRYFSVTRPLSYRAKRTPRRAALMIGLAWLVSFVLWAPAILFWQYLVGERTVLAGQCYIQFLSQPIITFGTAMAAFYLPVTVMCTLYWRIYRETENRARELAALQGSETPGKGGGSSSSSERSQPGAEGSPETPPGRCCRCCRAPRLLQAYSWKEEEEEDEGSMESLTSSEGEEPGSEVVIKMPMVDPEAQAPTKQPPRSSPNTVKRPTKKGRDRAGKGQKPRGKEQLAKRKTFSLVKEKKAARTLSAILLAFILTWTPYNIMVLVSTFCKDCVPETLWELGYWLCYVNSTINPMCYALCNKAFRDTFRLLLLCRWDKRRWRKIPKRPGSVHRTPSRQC
The assay is described as follows: Functional mobilization of intracellular calcium (FLIPR), M1-CHO cells. To be noted: for Emax: 100% efficacy = maximum response obtained with the Carbachol control; for M1 Activity: M1-CHO cells, calcium mobilization (FLIPR). An outline of the steps: (§1)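 FLIPR fluorescence (ex 488, em 540 nm) recorded 60 sec after compound addition to dye-loaded CHO cells. Agonist mode: compound alone. Antagonist mode: 15 min compound pre-incubation, then carbachol at EC80, or co-application. Efficacy expressed as % of maximal carbachol response.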
A general note: Calcium assays in cells follow changes in intracellular calcium, usually with a dye or a luminescent sensor.

For the next assay, the target named is T2, M2 muscarinic receptor (Homo sapiens, UniProt P08172).
T2 construct: expressed in transfected cells; host or cells: CHO (M2-CHO)
T2 sequence (P08172 1-466): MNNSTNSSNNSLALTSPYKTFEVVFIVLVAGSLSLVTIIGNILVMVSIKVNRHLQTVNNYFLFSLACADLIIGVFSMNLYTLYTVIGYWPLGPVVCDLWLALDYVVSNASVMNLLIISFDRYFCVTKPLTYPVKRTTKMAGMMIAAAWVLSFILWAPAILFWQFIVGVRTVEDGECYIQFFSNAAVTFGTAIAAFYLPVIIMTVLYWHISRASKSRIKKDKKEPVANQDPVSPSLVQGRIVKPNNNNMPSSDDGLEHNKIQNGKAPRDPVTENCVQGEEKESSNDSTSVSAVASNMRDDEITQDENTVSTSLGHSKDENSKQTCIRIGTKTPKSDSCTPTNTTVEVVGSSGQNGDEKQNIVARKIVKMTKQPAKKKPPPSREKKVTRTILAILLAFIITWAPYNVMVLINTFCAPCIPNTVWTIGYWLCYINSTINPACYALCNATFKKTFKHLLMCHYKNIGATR
The assay is described as follows: Functional mobilization of intracellular calcium (FLIPR), M2-CHO cells. To be noted: for Emax: 100% efficacy = maximum response obtained with the Carbachol control; for M2 Activity: M2-CHO cells, calcium mobilization (FLIPR). An outline of the steps:
as §1

In a further assay the target is T3, M3 muscarinic receptor (Homo sapiens, UniProt P20309).
T3 construct: expressed in transfected cells; host or cells: CHO (M3-CHO)
T3 sequence (P20309 whole entry): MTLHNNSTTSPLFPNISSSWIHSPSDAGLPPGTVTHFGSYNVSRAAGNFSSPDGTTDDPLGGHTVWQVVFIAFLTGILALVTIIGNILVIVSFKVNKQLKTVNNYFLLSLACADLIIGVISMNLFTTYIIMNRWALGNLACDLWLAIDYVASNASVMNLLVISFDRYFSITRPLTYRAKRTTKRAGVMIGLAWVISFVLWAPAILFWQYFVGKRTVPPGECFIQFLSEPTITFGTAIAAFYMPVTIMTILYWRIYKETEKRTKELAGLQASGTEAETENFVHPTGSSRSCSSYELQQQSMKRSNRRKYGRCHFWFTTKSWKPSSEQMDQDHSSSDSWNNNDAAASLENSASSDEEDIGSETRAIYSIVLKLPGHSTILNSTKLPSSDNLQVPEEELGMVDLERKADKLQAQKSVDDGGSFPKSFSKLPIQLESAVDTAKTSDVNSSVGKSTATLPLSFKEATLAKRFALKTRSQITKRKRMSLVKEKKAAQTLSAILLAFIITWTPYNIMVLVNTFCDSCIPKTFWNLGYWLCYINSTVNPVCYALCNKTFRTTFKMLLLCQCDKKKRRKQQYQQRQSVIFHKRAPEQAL
The assay is described as follows: Functional mobilization of intracellular calcium (FLIPR), M3-CHO cells. To be noted: for Emax: 100% efficacy = maximum response obtained with the Carbachol control; for M3 Activity: M3-CHO cells, calcium mobilization (FLIPR). An outline of the steps: as §1

In the next assay the target is T4, M4 muscarinic receptor (Homo sapiens, UniProt P08173).
T4 construct: expressed in transfected cells; host or cells: CHO (M4-CHO)
T4 sequence (P08173 1-479): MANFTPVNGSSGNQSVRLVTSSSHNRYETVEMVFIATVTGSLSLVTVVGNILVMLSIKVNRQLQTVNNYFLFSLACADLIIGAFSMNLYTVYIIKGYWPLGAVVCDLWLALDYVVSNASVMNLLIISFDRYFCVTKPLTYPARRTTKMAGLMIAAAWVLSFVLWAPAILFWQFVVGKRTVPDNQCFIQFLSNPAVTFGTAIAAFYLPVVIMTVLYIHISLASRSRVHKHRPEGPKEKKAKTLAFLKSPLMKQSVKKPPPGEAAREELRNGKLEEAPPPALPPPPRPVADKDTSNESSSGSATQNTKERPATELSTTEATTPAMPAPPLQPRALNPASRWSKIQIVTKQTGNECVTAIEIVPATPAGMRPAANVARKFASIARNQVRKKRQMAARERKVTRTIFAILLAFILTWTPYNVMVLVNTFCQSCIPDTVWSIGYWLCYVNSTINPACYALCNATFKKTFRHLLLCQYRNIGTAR
Nature of the assay: Functional mobilization of intracellular calcium (FLIPR), M4-CHO cells. To be noted: for Emax: 100% efficacy = maximum response obtained with the Carbachol control; for M4 Activity: M4-CHO cells, calcium mobilization (FLIPR). The essentials: as §1

The term Emax denotes the greatest response seen or fitted, relative to the assay's reference. For `CCOC(=O)N1CCC(CN2CCC(c3ccccc3OC(F)(F)F)CC2)CC1` [Compound 271], at M1 muscarinic receptor, the Emax fell in the range of 25 to 100% and the “M1 Activity” value is given as “+++ (activity was measured to be less than 1.0 μM)”. On M2 muscarinic receptor, the Emax lay within 25 to 100% and the “M2 Activity” value is given as “++ (activity was measured to be from 1.0 μM to 5.0 μM)”. Also, on M3 muscarinic receptor, the Emax was less than 25% and the “M3 Activity” value is “+ (activity was measured to be greater than 5.0 μM)”. At M4 muscarinic receptor, the Emax was in the range of 25 to 100% and the “M4 Activity” value is listed as “+++ (activity was measured to be less than 1.0 μM)”.
Take `COc1ccc(-c2ccc(CC#N)cc2)cc1C1CCN(C2CCOCC2)CC1` [Compound 263]: on M1 muscarinic receptor, the Emax is less than 25% and the “M1 Activity” value is “+ (activity was measured to be greater than 5.0 μM)”. Also, on M2 muscarinic receptor, the Emax is less than 25% and the “M2 Activity” value is “+ (activity was measured to be greater than 5.0 μM)”. In addition, on M3 muscarinic receptor, the Emax was less than 25% and the “M3 Activity” value is listed as “+ (activity was measured to be greater than 5.0 μM)”. On M4 muscarinic receptor, the Emax was less than 25% and the “M4 Activity” value is given as “+ (activity was measured to be greater than 5.0 μM)”.
Turning to `COc1ccc(Cl)cc1C1(OC)CCN(C[C@H]2C[C@H]3C=C[C@@H]2C3)CC1` [Compound 140, 1-(((1S,2S,4S)-bicyclo[2.2.1]hept-5-en-2-yl)methyl)-4-(5-chloro-2-methoxyphenyl)-4-methoxypiperidine], at M1 muscarinic receptor, the Emax lay in the range of 25 to 100% and the “M1 Activity” value is “++ (activity was measured to be from 1.0 μM to 5.0 μM)”. Also, on M2 muscarinic receptor, the Emax was 25 to 100% and the “M2 Activity” value is on record as “++ (activity was measured to be from 1.0 μM to 5.0 μM)”. Also, at M3 muscarinic receptor, the Emax is less than 25% and the “M3 Activity” value was “+ (activity was measured to be greater than 5.0 μM)”. In addition, on M4 muscarinic receptor, the Emax was in the range of 25 to 100% and the “M4 Activity” value is listed as “+++ (activity was measured to be less than 1.0 μM)”.
Take `CCOC(=O)N1C2CCC1CC(N1CCC(c3cc(-c4ccc(C#N)cc4)ccc3OC)CC1)C2` (stereo not drawn) [Compound 317]: on M1 muscarinic receptor, the Emax was in the range of 25 to 100% and the “M1 Activity” value is “++ (activity was measured to be from 1.0 μM to 5.0 μM)”. Besides, on M2 muscarinic receptor, the Emax was less than 25% and the “M2 Activity” value is on record as “+ (activity was measured to be greater than 5.0 μM)”. For the same molecule, at M3 muscarinic receptor, the Emax was less than 25% and the “M3 Activity” value was “+ (activity was measured to be greater than 5.0 μM)”. Further, at M4 muscarinic receptor, the Emax was 25 to 100% and the “M4 Activity” value is “++ (activity was measured to be from 1.0 μM to 5.0 μM)”.
As for `Cc1ccc(F)c(C2CCN(C3C[C@H]4CC[C@H]3C4)CC2)c1` (stereo partly drawn) [Compound 290], at M1 muscarinic receptor, the Emax was 25 to 100% and the “M1 Activity” value is “++ (activity was measured to be from 1.0 μM to 5.0 μM)”. On M2 muscarinic receptor, the Emax fell in the range of 25 to 100% and the “M2 Activity” value is listed as “+ (activity was measured to be greater than 5.0 μM)”. Besides, at M3 muscarinic receptor, the Emax was less than 25% and the “M3 Activity” value was “+ (activity was measured to be greater than 5.0 μM)”. At M4 muscarinic receptor, the Emax lay within 25 to 100% and the “M4 Activity” value is “++ (activity was measured to be from 1.0 μM to 5.0 μM)”.
For the molecule `COc1ccc(F)cc1C1(F)CCN(C[C@H]2C[C@H]3C=C[C@H]2C3)CC1` [Compound 134], at M1 muscarinic receptor, the Emax fell in the range of 25 to 100% and the “M1 Activity” value is recorded as “++ (activity was measured to be from 1.0 μM to 5.0 μM)”. Moreover, at M2 muscarinic receptor, the Emax fell in the range of 25 to 100% and the “M2 Activity” value was “++ (activity was measured to be from 1.0 μM to 5.0 μM)”. Besides, on M3 muscarinic receptor, the maximal effect (Emax) is less than 25% and the “M3 Activity” value is “+ (activity was measured to be greater than 5.0 μM)”. In addition, at M4 muscarinic receptor, the Emax is 25 to 100% and the “M4 Activity” value is “+++ (activity was measured to be less than 1.0 μM)”.
For the molecule `COc1ccc(-c2ccc(CC#N)cc2)cc1C1CCN(C2C[C@H]3CC[C@H]2C3)CC1` (stereo partly drawn) [Compound 190], at M1 muscarinic receptor, the maximal effect (Emax) is less than 25% and the “M1 Activity” value is listed as “+ (activity was measured to be greater than 5.0 μM)”. In addition, on M2 muscarinic receptor, the Emax was less than 25% and the “M2 Activity” value is recorded as “+ (activity was measured to be greater than 5.0 μM)”. At M3 muscarinic receptor, the Emax is less than 25% and the “M3 Activity” value is on record as “+ (activity was measured to be greater than 5.0 μM)”. At M4 muscarinic receptor, the Emax was 25 to 100% and the “M4 Activity” value was “+ (activity was measured to be greater than 5.0 μM)”.
For `COc1ccccc1C1CCN(C2CCOCC2)CC1O` (stereo not drawn) [Compound 235], at M1 muscarinic receptor, the Emax fell in the range of 25 to 100% and the “M1 Activity” value is “+ (activity was measured to be greater than 5.0 μM)”. On M2 muscarinic receptor, the Emax is less than 25% and the “M2 Activity” value is listed as “+ (activity was measured to be greater than 5.0 μM)”. In addition, on M3 muscarinic receptor, the Emax was less than 25% and the “M3 Activity” value was “+ (activity was measured to be greater than 5.0 μM)”. Moreover, on M4 muscarinic receptor, the Emax lay in the range of 25 to 100% and the “M4 Activity” value is reported as “+ (activity was measured to be greater than 5.0 μM)”.
For the molecule `CCOC(=O)N1C2CCC1CC(N1CCC(c3ccccc3OC(F)(F)F)CC1)C2` (stereo not drawn) [Compound 355], at M1 muscarinic receptor, the Emax lay within 25 to 100% and the “M1 Activity” value is “+++ (activity was measured to be less than 1.0 μM)”. Further, on M2 muscarinic receptor, the Emax was less than 25% and the “M2 Activity” value is “+ (activity was measured to be greater than 5.0 μM)”. On M3 muscarinic receptor, the Emax was less than 25% and the “M3 Activity” value was “+ (activity was measured to be greater than 5.0 μM)”. Further, on M4 muscarinic receptor, the Emax was in the range of 25 to 100% and the “M4 Activity” value is given as “+++ (activity was measured to be less than 1.0 μM)”.
`COc1ccc(F)cc1C1(F)CCN(C2CCCCC2)CC1` [Compound 59]: on M1 muscarinic receptor, the Emax lay within 25 to 100% and the “M1 Activity” value is reported as “+ (activity was measured to be greater than 5.0 μM)”. Also, on M2 muscarinic receptor, the Emax was less than 25% and the “M2 Activity” value was “+ (activity was measured to be greater than 5.0 μM)”. On M3 muscarinic receptor, the Emax is less than 25% and the “M3 Activity” value is “+ (activity was measured to be greater than 5.0 μM)”. Further, on M4 muscarinic receptor, the Emax fell in the range of 25 to 100% and the “M4 Activity” value is given as “++ (activity was measured to be from 1.0 μM to 5.0 μM)”.
Regarding `COc1ccccc1C1CCN(CC2CCCC2)CC1` [Compound 232], on M1 muscarinic receptor, the Emax is 25 to 100% and the “M1 Activity” value is recorded as “+ (activity was measured to be greater than 5.0 μM)”. In addition, on M2 muscarinic receptor, the Emax was less than 25% and the “M2 Activity” value is “+ (activity was measured to be greater than 5.0 μM)”. For the same molecule, on M3 muscarinic receptor, the Emax is less than 25% and the “M3 Activity” value is recorded as “+ (activity was measured to be greater than 5.0 μM)”. At M4 muscarinic receptor, the Emax was 25 to 100% and the “M4 Activity” value is recorded as “++ (activity was measured to be from 1.0 μM to 5.0 μM)”.
For the molecule `COc1c(F)cc(F)cc1C1CCN([C@H]2C[C@H]3CC[C@H]2C3)CC1` [Compound 165], at M1 muscarinic receptor, the Emax lay in the range of 25 to 100% and the “M1 Activity” value was “+ (activity was measured to be greater than 5.0 μM)”. In addition, at M2 muscarinic receptor, the Emax was less than 25% and the “M2 Activity” value is “+ (activity was measured to be greater than 5.0 μM)”. In addition, at M3 muscarinic receptor, the Emax is less than 25% and the “M3 Activity” value is on record as “+ (activity was measured to be greater than 5.0 μM)”. At M4 muscarinic receptor, the Emax was in the range of 25 to 100% and the “M4 Activity” value is “++ (activity was measured to be from 1.0 μM to 5.0 μM)”.
